These are literature values, as cited in article PMC3616063, “Genomic and Structural Characterization of Kunitz-Type Peptide LmKTT-1a Highlights Diversity and Evolution of Scorpion Potassium Channel Toxins” (PLoS ONE, 2013).

Data set [1] concerns Herg channels. The conditions noted are these: ref [11]. The source says:
(§1) Over the last 400 million years, scorpions have evolved many peptide toxins that target different potassium channels. Numerous potassium channel toxins have been isolated from scorpions including those identified by proteomic and transcriptome analysis of scorpion venom glands [2]–[4]. These toxins are divided into α-KTx, β-KTx, γ-KTx, and κ-KTx subfamilies based on their similarity, [6]. Some of the toxins are specific inhibitors that serve as useful pharmacological tools and candidate drugs that target various potassium channels. Examples include charybdotoxin (ChTX), ...

Data set [2] deals with Kv1.3. The conditions noted are these: ref [8].
From the text: as §1

Data set [3] concerns BKCa channels. As to conditions: ref [8].
From the text: as §1

In data set [4] the test system is IKCa channels. The conditions noted are these: ref [10].
From the text: as §1

Data set [5] deals with SKCa channels. As to conditions: ref [9].
From the text: as §1

On to “BeKm-1: scorpion toxin which inhibits Herg channels (RPTDIKCSESYQCFPVCKSRFGKTNGRCVNGFCDCF; UniProt Q9BKB7 22-57, looked up)”, for which, in data set [1], the Herg channel inhibition result is listed as “inhibits Herg channels”. For the substance charybdotoxin [charybdotoxin (ChTX)], the Kv1.3 channel targeting result in data set [2] is reported as “targeted toward Kv1.3”. Moreover, in data set [3], the BKCa channel targeting result is “targeted toward Kv1.3 and BKCa channels”.

In the case of “maurotoxin (VSCTGSKDCYAPCRKQTGCPNAKCINKSCKCYGC; UniProt P80719 1-34, looked up) [maurotoxin (MTX)]”, in data set [4], the IKCa channel targeting result is recorded as “targeted toward IKCa channels”. Turning to “scyllatoxin (AFCNLRMCQLSCRSLGLLGKCIGDKCECVKH; UniProt P16341 1-31, looked up) [scyllatoxin (ScyTx)]”, the SKCa channel inhibition result in data set [5] was “inhibits SKCa channels”.
